In ChEMBL document CHEMBL3611995, “Chalcone scaffolds as anti-infective agents: structural and molecular target perspectives” (Eur J Med Chem, 2015):
≈ marks a conversion by molar mass, not a printed value.

What was measured:
[1] = test system: Leishmania amazonensis; assay: Anti-leishmanial activity against Leishmania amazonensis promastigotes; type: functional; details: read-out: ED50
[2] = test system: Leishmania amazonensis; assay: Anti-leishmanial activity against Leishmania amazonensis intracellular amastigotes; type: functional; details: read-out: ED50
[3] = test system: Plasmodium falciparum; assay: Anti-parasitic activity against chloroquine-susceptible Plasmodium falciparum D6; type: functional, organism-based
[4] = test system: Plasmodium falciparum; assay: Anti-parasitic activity against chloroquine-resistant Plasmodium falciparum W2; type: functional, organism-based
[5] = test system: Leishmania major; assay: Anti-leishmanial activity against Leishmania major; type: functional, organism-based
[6] = test system: Plasmodium falciparum; assay: Anti-parasitic activity against chloroquine-susceptible Plasmodium falciparum 3D7 assessed as reduction in parasite maturation at 50 ug/ml; type: functional
[7] = Selectivity index, ratio of cytotoxicity for human HeLa cells to IC50 for anti-parasitic activity against chloroquine-resistant Plasmodium falciparum W2; type: toxicity, cell-based; details: read-out: Selectivity Index
[8] = Inhibition of Trypanosoma brucei trypanopain
[9] = test system: Plasmodium falciparum; assay: Inhibition of Plasmodium falciparum GST; details: concentration not given here
[10] = Inhibition of Trypanosoma cruzi trans-sialidase
[11] = test system: Trichophyton rubrum; assay: Antimicrobial activity against Trichophyton rubrum clinical isolates; type: functional
[12] = test system: Trichophyton rubrum; assay: Antimicrobial activity against Trichophyton rubrum; type: functional
[13] = Inhibition of beta-hematin formation; type: physicochemical
[14] = biological target: Plasmepsin II (Plasmodium falciparum, UniProt P46925); assay: (§1) Inhibition of Plasmodium falciparum plasmepsin 2
[15] = test system: Plasmodium falciparum; assay: Anti-parasitic activity against chloroquine-susceptible Plasmodium falciparum 3D7 assessed as reduction in parasite maturation; type: functional
[16] = Inhibition of new permeation pathway in erythrocytes (unknown origin) at 20 uM by sorbitol-induced hemolysis assay; type: functional, cell-based; details: Erythrocyte
[17] = test system: Plasmodium falciparum; assay: Anti-parasitic activity against Plasmodium falciparum; type: functional
[18] = test system: Plasmodium falciparum; assay: Anti-parasitic activity against Plasmodium falciparum assessed as inhibition of parasite development from ring to schizont stage; type: functional
[19] = test system: Enterovirus; assay: Antiviral activity against Rhinovirus infected in human HeLa cells; type: functional, organism-based
[20] = Cytotoxicity against human HeLa cells; type: cell-based
[21] = Inhibition of Plasmodium falciparum Cytochrome b-c1 complex
[22] = test system: Leishmania donovani; assay: Anti-leishmanial activity against Leishmania donovani infected in hamsters assessed as reduction in parasite load in liver at 5 to 150 mg/kg/day, po for 6 consecutive days; type: functional
[23] = Inhibition of Plasmodium falciparum succinate-ubiquinone oxidoreductase
[24] = test system: Leishmania donovani; assay: Anti-leishmanial activity against Leishmania donovani infected in hamsters assessed as reduction in parasite load in spleen at 20 mg/kg/day, ip for 6 consecutive days; type: functional
[25] = test system: Leishmania donovani; assay: Anti-leishmanial activity against Leishmania donovani infected in hamsters assessed as reduction in parasite load in liver at 20 mg/kg/day, ip for 6 consecutive days; type: functional
[26] = test system: Leishmania donovani; assay: Anti-leishmanial activity against Leishmania donovani infected in hamsters assessed as reduction in parasite load in spleen at 5 to 150 mg/kg/day, po for 6 consecutive days; type: functional
[27] = Inhibition of Plasmodium falciparum falcipain
[28] = biological target: Plasmepsin II (Plasmodium falciparum) (UniProt P46925); assay: as §1; details: concentration not given here
[29] = Inhibition of Trichophyton rubrum FAS
[30] = Inhibition of Saccharomyces cerevisiae beta-1,3-glucan synthase
[31] = test system: Trichophyton rubrum; assay: Antimicrobial activity against wild type Trichophyton rubrum MYA3108; type: functional
[32] = Inhibition of Saccharomyces cerevisiae chitin synthase-1
[33] = test system: Trichophyton rubrum; assay: Antimicrobial activity against Trichophyton rubrum with deltaTruMDR2 mutation; type: functional

Sequence of Plasmepsin II (P46925 whole entry): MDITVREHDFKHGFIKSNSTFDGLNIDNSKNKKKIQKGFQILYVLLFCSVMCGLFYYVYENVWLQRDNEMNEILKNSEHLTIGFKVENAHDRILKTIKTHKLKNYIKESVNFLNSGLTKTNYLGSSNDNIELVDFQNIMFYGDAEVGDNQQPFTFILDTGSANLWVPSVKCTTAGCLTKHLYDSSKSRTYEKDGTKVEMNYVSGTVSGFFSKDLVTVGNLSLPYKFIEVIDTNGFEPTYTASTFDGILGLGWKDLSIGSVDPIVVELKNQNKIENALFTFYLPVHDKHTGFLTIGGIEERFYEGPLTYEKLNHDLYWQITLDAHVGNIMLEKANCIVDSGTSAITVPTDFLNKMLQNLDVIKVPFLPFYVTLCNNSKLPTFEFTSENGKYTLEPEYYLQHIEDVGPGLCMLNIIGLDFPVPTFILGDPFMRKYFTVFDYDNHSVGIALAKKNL
Sequence of Plasmepsin II (Plasmodium falciparum) (P46925 125-453 limits assumed): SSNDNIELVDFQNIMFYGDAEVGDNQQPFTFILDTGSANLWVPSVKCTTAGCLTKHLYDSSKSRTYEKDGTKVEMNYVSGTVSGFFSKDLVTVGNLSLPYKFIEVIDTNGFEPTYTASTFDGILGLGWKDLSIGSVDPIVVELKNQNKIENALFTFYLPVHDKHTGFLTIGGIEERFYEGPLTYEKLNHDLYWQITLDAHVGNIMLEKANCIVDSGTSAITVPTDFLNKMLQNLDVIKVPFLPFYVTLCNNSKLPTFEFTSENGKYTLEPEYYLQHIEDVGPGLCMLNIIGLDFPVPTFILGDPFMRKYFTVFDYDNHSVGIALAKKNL

For COc1cc(O)c(C(=O)/C=C/c2ccccc2)c(O)c1, the EC50 [1] was 0.5 µg/mL (≈ 1.85 µM) and the EC50 [2] was 24 µg/mL (≈ 88.8 µM).

O=C(/C=C/c1cnc2ccccc2c1)c1cc(Cl)ccc1Cl gave an IC50 [3] of 200 nM and an IC50 [4] of 200 nM.

O=C(/C=C/c1ccc(O)cc1)c1ccccc1 [4-HYDROXYCHALCONE] showed an IC50 [5] of 4 µM.

Compound Cc1cccc(C(=O)/C=C(\I)c2cc3ccccc3nc2Cl)c1O has an MIC [6] of 50 µg/mL (≈ 111 µM).

In the case of COc1ccc(/C=C/C(=O)c2ccccc2)cc1S(=O)(=O)N1CCOCC1, the selectivity ratio [7] is reported as 9.

For O=C(/C=C/c1cc2ccccc2nc1Cl)c1ccc(Cl)c(Cl)c1Cl, the IC50 [8] was 240 nM.

COc1ccc(/C=C/C(=O)c2ccc(-n3nnc4ccccc43)cc2)cc1 showed an inhibition [9] of 84%.

Cc1ccc(S(=O)(=O)Nc2ccc(C(=O)/C=C/c3ccc(O)c(O)c3)cc2)cc1 showed an IC50 [10] of 900 nM.

Compound COc1cc(O)c(C(=O)/C=C/c2ccccc2Cl)c(OC)c1 has an MIC50 [11] of 12.5 µg/mL (≈ 39.2 µM), an MIC90 [11] of 25 µg/mL (≈ 78.4 µM) and an MIC [12] of 12.5 µg/mL (≈ 39.2 µM).

In the case of COc1ccc(/C=C/C(=O)c2ccc(NS(=O)(=O)c3cc(Cl)ccc3Cl)cc2)c(OC)c1OC, the IC50 [13] is reported as 480 nM.

For COc1ccc(C(=O)/C=C/c2ccc(F)cc2F)c(OC)c1, the IC50 [14] was 6 µM.

With O=C(/C=C/c1cccnc1)c1ccc(NS(=O)(=O)c2cc(Cl)ccc2Cl)cc1 the IC50 [13] was 500 nM.

In the case of CCOc1ccc2nc(Cl)c(/C=C/C(=O)c3cc(Br)cc(Cl)c3O)cc2c1, the MIC [15] is reported as 10 µg/mL (≈ 21.4 µM).

In the case of COc1cc2c(cc1/C=C/C(=O)c1ccccc1)[C@H]1CC[C@]3(C)[C@@H](Oc4cc(OC)c(OC)c(OC)c4)CC[C@H]3[C@@H]1CC2, the inhibition [16] is reported as > 70%, the GI50 [17] is reported as < 5 µM and the MIC [18] is reported as 2.07 µM (≈ 1.21 µg/mL).

Work on CCOc1cc(O)c(C(=O)/C=C/c2ccc(OC)cc2)c(OC)c1 yielded an IC50 [19] of 0.03 µg/mL (≈ 0.0914 µM) and a CC50 [20] of 30 µg/mL (≈ 91.4 µM).

For C=CC(C)(C)c1cc(/C=C/C(=O)c2ccc(O)cc2)c(OC)cc1O [LICOAGROCHACONE A], the IC50 [21] was 10.8 µM, the “inhibition (INH)” value [22] was >65% and the IC50 [23] was ≥ 100 µM. For the same compound, the inhibition in vivo at 20 mg/kg/day [24] was > 96%, the inhibition in vivo at 20 mg/kg/day [25] was > 96% and the “inhibition (INH)” value [26] was >65%.

COc1ccc(/C=C/C(=O)c2ccc(N3CCCC3)cc2)cc1 gave an inhibition [9] of 84%.

In the case of COc1cc2cc(/C=C/C(=O)c3ccc(Cl)cc3Cl)cnc2cc1OC, the IC50 [27] is reported as 19 µM.

COc1ccc(C(=O)/C=C/c2ccc(C(F)(F)F)cc2)c(OC)c1 gave an IC50 [14] of 6 µM.

Compound COc1ccc(/C=C/C(=O)c2ccccc2O)c(OC)c1 has an IC50 [5] of 4.54 µM.

Work on O=C(/C=C/c1cc2ccccc2nc1Cl)c1cc(Br)cc(Cl)c1O yielded an MIC [15] of 10 µg/mL (≈ 23.6 µM).

For O=C(/C=C/c1ccc(Cl)cc1)c1ccc(N2CCCCC2)cc1, the inhibition [9] was 84%.

In the case of COc1cc(/C=C/C(=O)c2ccc(NC(=O)Nc3cccc(C(=O)/C=C/c4cc(OC)c(OC)c(OC)c4)c3)cc2)cc(OC)c1OC, the inhibition [28] is reported as 87%.

In the case of O=C(/C=C\c1ccnc2ccccc12)c1cc(Cl)ccc1Cl, the IC50 [3] is reported as 200 nM and the IC50 [4] is reported as 200 nM.

With Cc1ccc(S(=O)(=O)Nc2cccc(C(=O)/C=C/c3ccc(O)c(O)c3)c2)cc1 the IC50 [10] was 2500 nM.

O=C(/C=C/c1ccccc1)c1ccccc1 [CHALCONE] showed an IC50 [29] of 68.23 µg/mL (≈ 328 µM), an IC50 [30] of 0.14 µg/mL (≈ 0.672 µM) and an MIC [31] of 7.5 µg/mL (≈ 36 µM). It also gave an IC50 [32] of 0.02 µg/mL (≈ 0.096 µM) and an MIC [33] of 1.9 µg/mL (≈ 9.12 µM).
